Publication PMC7892644 (Cancer discovery, 2020)
Read-outs that look alike come from different tables or passages of the source.

Assays:
[1] = tested on: recombinant SOS1 and recombinant KRAS G12C; assay: AlphaScreen protein-protein interaction assay, SOS1 and KRAS G12C; assay type: binding; details: KRAS-GDP, result in words
[2] = tested on: recombinant SOS1 and recombinant KRAS G12D; assay: AlphaScreen protein-protein interaction assay, SOS1 and KRAS G12D; assay type: binding; details: KRAS-GDP, result in words
[3] = tested on: panel of 24 cell lines, including 18 KRAS-mutated cell lines; assay: 2D proliferation assays across a panel of 24 cell lines; assay type: cell-based
[4] = tested on: retinal pigment epithelial cells; assay: Proliferation of retinal pigment epithelial cells; assay type: cell-based; details: Epithelial cell, read-out: IC50, proliferation
[5] = tested on: panel of 24 cell lines, including 18 KRAS-mutated cell lines; assay: 3D proliferation assays across a panel of 24 cell lines; assay type: cell-based; details: for IC50: read-out: IC50, 3D proliferation
[6] = tested on: KRAS Q61K mutant pancreatic PDX model; assay: KRAS Q61K mutant pancreatic PDX model efficacy; assay type: in vivo, mice; details: BI-3406 50 mg/kg bid, trametinib 0.1 mg/kg bid, 5 days on/2 days off
[7] = tested on: NCI-H520 cells (KRAS wild-type); assay: 3D proliferation assay, NCI-H520; assay type: cell-based
[8] = tested on: pERK levels in isogenic NCI-H23 cell lines; assay: pERK levels in isogenic NCI-H23 cell lines
[9] = tested on: KRAS G12C-mutated MIA PaCa-2 xenografts; details: 12 or 50 mg/kg twice daily; p<0.005 vs vehicle control
[10] = tested on: A375 cells (KRAS wild-type, BRAF V600E); assay: 3D proliferation assay, A375; assay type: cell-based
[11] = tested on: pERK levels in A375 melanoma cells (KRAS wild-type, BRAF V600E); assay: pERK inhibition in A375 cells; assay type: cell-based; details: A375, 1 hour, 2D
[12] = tested on: primary smooth muscle cells; assay: Proliferation of primary smooth muscle cells; assay type: cell-based; details: read-out: IC50, proliferation
foreskin fibroblasts = assay: cells; details: Fibroblast, read-out: IC50, proliferation

C=CC(=O)N1CCN(c2ncnc3c(F)c(-c4c(O)cccc4F)c(Cl)cc23)CC1 [ARS-1620]
inhibition of SOS1 interaction with KRAS G12C [1]: able to interfere
inhibition of SOS1 interaction with KRAS G12D [2]: no effect

CNCc1ccccc1-c1csc([C@@H](C)Nc2nc(C)nc3cc(OC)c(OC)cc23)c1 [BAY293]
activity in 2D proliferation assays [3]: no activity

COc1cc2nc(C)nc(N[C@H](C)c3cc(N)cc(C(F)(F)F)c3)c2cc1O[C@H]1CCOC1 [BI-3406]
IC50 [4]: > 5000 nM
IC50 [5]: 9 to 220 nM
activity in 2D proliferation assays [3]: no activity
antitumor efficacy [6]: only weak efficacy
effect on 3D growth [7]: not appreciably affected
modulation of pERK ([8]; NCI-H23 cells carrying the G12R variant): No modulation
inhibition of pERK levels ([8]; NCI-H23 cells carrying the Q61H oncogenic variant): weak inhibition
reduction of pERK levels ([8]; all KRAS variant isogenic NCI-H23 cell lines, independent of zygosity): ~50%
tumor growth inhibition [9]: prolonged dose-dependent tumor growth inhibition
effect on 3D growth [10]: not appreciably affected
pERK modulation [11]: No pERK modulation
IC50 [12]: > 5000 nM

CC1(N)CCN(c2cnc(-c3cccc(Cl)c3Cl)c(N)n2)CC1 [SHP099]
effect in 3D proliferation ([5]; Q61L/H and G12R KRAS mutant tumor cells): no effects were detectable
IC50 ([5]; KRAS G12C, a subset of G12D cell lines, and one G12S cell line): 167 to 790 nM
IC50 ([5]; KRAS G13D and G12V cells): 1180 to 4410 nM
activity in 2D proliferation assays [3]: no activity

Cc1[nH]c2ccccc2c1CCNCc1ccc(/C=C/C(=O)NO)cc1 [panobinostat]
effect on 3D growth [7]: responded
effect on 3D growth [10]: responded

CC(=O)Nc1cccc(-n2c(=O)n(C3CC3)c(=O)c3c(Nc4ccc(I)cc4F)n(C)c(=O)c(C)c32)c1 [trametinib]
IC50 [4]: 12 nM
IC50 (foreskin fibroblasts): 85 nM
IC50 [12]: 843 nM
